Assays:
[1] = biological target: α5-GABAA receptor (α5, β3, γ2 subunits) (Homo sapiens (Human), UniProt P18507+P31644); experiment: Whole cell patch clamp, inverse agonist efficacy in HEK293 cells expressing α5-GABAA receptor; type: cell-based; conditions: GABA 0.05 μM, −60 mV; for inhibition at 0.1 µM: HEK293, drug 100 nM, read-out: Compound inverse agonist efficacy %
Source text: The inventors used electrophysiological methods to determine the inverse agonist efficacy of the drugs to be tested on the α5-GABAA receptor. The detailed methods are as follows:
Different subunits of the GABAA receptor were co-expressed in the HEK293 cell line to construct a fully functional GABAA receptor. The α, β, and γ subunits are essential to form a complete functional GABAA receptor. In this example, the present disclosure had established the following cell model: α5 subunit (see GenBank Accession No.: NM_000810.3 for protein sequences), β3 subunit (see GenBank Accession No.: NM_000814.5 for protein sequences), and γ2 subunit (see GenBank Accession No.: NM_000816.3 for protein sequences) were co-expressed in the HEK293 cell line, followed by screening the monoclonal stably transfected cell line. This cell line expressed a fully functional α5-GABAA receptor.
The monoclonal stably transfected HEK293 cell line expressing α5-GABAA receptor were cultured in 10 cm culture dishes and passaged when the cells grew to 80% to 90% confluent. During passaging, the culture medium was aspirated first, then 3 mL of DPBS phosphate buffer salt (Gibco™) was added to the culture dishes, and the culture dishes were shaken slightly, and DPBS was aspirated. 1 mL of trypsin (TrypLE Express, Gibco™) was added thereto, and the cells were digested at 37° C. for 1-2 minutes. Then 3 mL of complete medium (DMEM+10% FBS (Gibco™)) was added and the cells at the bottom of the culture dishes were dispersed. The cell suspension was transferred to a 15 mL centrifugal tube (Corning) and then centrifuged at 200 g for 3 minutes. The supernatant was discarded, 4 mL of complete medium was added, and the cells were gently blown and resuspended for use. If cell passaging was performed, the cell suspension was diluted at a ratio of 1:5 or 1:10. If cells for electrophysiological detection were prepared, the cell suspension was diluted in a ratio of 1:12, then added into a 24-well dish (Corning™) in which glass slides were placed and pretreated with Poly-D-Lysine, and the experiment was carried out after the cells adhered to the wall. The cells used for electrophysiology was cultured no more than 48 hours.
Drug concentration setting: The final drug concentration used in drug screening was 100 nM, and the GABA concentration was 0.05 μM. The whole cell patch clamp technique was used in electrophysiological assays, which could refer to the literature (I. Lecker, Y. Yin, D. S. Wang and B. A. Orser, British Journal of Anaesthesia, 2013, 110 (Si), i73-i81). The compositions of the extracellular solution for electrophysiology assay were as follows: 150 mM NaCl, 5 mM KCl, 2.5 mM CaCl2, 1 mM MgCl2, 10 mM HEPES, and 10 mM glucose (pH 7.4); the formulation of the electrode internal fluid for electrophysiology use was as follows: 140 mM CsCl, 11 mM EGTA, 10 mM HEPES, 2 mM CaCl2, 1 mM MgCl2, 4 mM MgATP, and 2 mM TEA (pH 7.3). The signal acquisition used an EPC-10 amplifier and the PatchMaster software (HEKA) or Axon700B amplifier and Clampex software (AXON). The recording electrode was pulled from borosilicate glass, and the electrode resistance was 4 to 6 MQ. The ALA-VC-8PG™ system was used for drug application. Single cell that grew independently was selected for recording. During recording, the cell membrane potential was clamped at −60 mV. During experiment, an extracellular solution was applied outside the cells for about 20 seconds. When the baseline reached to a stable state, the extracellular solution was switched to the GABA solution to induce an inward current. After about 20 to 40 seconds until the current was stable, the solution was switched to a corresponding drug solution to detect the effect of the drug. At last, the solution was switched to the extracellular solution, and the experiment was terminated when the baseline returned to the level before drug application. […]

[2] = biological target: human α5β3γ2 receptors (α5-GABAA receptor) (Homo sapiens (Human), UniProt P18507+P31644); experiment: 3H-flunitrazepam competition binding, human α5β3γ2 GABAA receptor; conditions: HEK293 cell membranes, 1 nM 3H-flunitrazepam; read-out: α5-GABAAR Ki
How it was run: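 HEK293 membranes stably expressing each human receptor subtype ([…]) competed against 1 nM 3H-flunitrazepam in Tris buffer, 1 h at room temperature; flumazenil defined the low-signal control. Eight-point 4-fold test-compound dilutions; GF/C filtration and scintillation counting gave IC50 by curve fitting, converted to Ki.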

Compound inverse agonist efficacy % ([1]; drug 100 nM) [%] | Ki [2] [nM] | inhibition at 0.1 µM [1] [%] | SMILES
−52.08 | 2.04 | – | Cc1nnn(-c2ccc(C(F)F)cc2)c1COc1ccc(N2CCN3CC(CC(C)C)NC(=O)[C@@H]3C2)nn1 (single isomer, unassigned) [Example 209]
– | 1.54 | 54.6 | Cc1nnn(-c2ccc(C(F)F)cc2)c1COc1ccc(N2CCN(CC3COC3)C(=O)C2)nn1 [Example 100, 4-(6-((1-(4-(Difluoromethyl)phenyl)-4-methyl-1H-1,2,3-triazol-5-yl)methoxy)pyridazin-3-yl)-1-(oxetan-3-ylmethyl)piperazin-2-one]
– | 0.75 | 49.2 | Cc1nnn(-c2ccc(C(F)F)cc2)c1COc1ccc(C2=CCCOC2)nn1 [Example 90, 3-((1-(4-(Difluoromethyl)phenyl)-4-methyl-1H-1,2,3-triazol-5-yl)methoxy)-6-(5,6-dihydro-2H-pyran-3-yl)pyridazine]
– | 4.27 | 47.2 | COC(C)CN1CCN(c2ccc(OCc3c(C)nnn3-c3ccc(C(F)F)cc3)nn2)CC1=O (centres unmarked) [Example 141, 4-(6-((1-(4-(Difluoromethyl)phenyl)-4-methyl-1H-1,2,3-triazol-5-yl)methoxy)pyridazin-3-yl)-1-(2-methoxypropyl)piperazin-2-one]
– | 4.07 | 52.7 | Cc1nnn(-c2ccc(C(F)F)cc2)c1COc1ccc(N2CC(CO)OC2=O)nn1 (centres unmarked) [Example 66, 3-(6-((1-(4-(Difluoromethyl)phenyl)-4-methyl-1H-1,2,3-triazol-5-yl)methoxy)pyridazin-3-yl)-5-(hydroxymethyl)oxazolidin-2-one]
– | 12.3 | 50.6 | Cc1nnn(-c2ccc(C(F)F)cc2)c1COc1ccc(N2CC(C(=O)O)C2)nn1 [Example 37, 1-(6-((1-(4-(Difluoromethyl)phenyl)-4-methyl-1H-1,2,3-triazol-5-yl)methoxy)pyridazin-3-yl)azetidine-3-carboxylic acid]
– | 0.9 | 55.1 | Cc1nnn(-c2ccc(C(F)F)cc2)c1COc1ccc(N2CC(=O)N3CCN(C)CC3C2)nn1 (centres unmarked) [Example 69, 2-(6-((1-(4-(Difluoromethyl)phenyl)-4-methyl-1H-1,2,3-triazol-5-yl)methoxy)pyridazin-3-yl)-8-methylhexahydro-1H-pyrazino[1,2-a]pyrazin-4(6H)-one]
– | 2.82 | 51.3 | Cc1nnn(-c2ccc(C(F)F)cc2)c1COc1ccc(N2CCN(c3ccncc3)C(=O)C2)nn1 [Example 114, 4-(6-((1-(4-(Difluoromethyl)phenyl)-4-methyl-1H-1,2,3-triazol-5-yl)methoxy)pyridazin-3-yl)-1-(pyridin-pyridin-4-yl)piperazin-2-one]
– | 2.72 | 41.9 | CNC(=O)[C@@H]1CN(c2ccc(OCc3c(C)nnn3-c3ccc(C(F)F)cc3)nn2)CCN1 [Example 30, (S)-4-(6-((1-(4-(Difluoromethyl)phenyl)-4-methyl-1H-1,2,3-triazol-5-yl)methoxy)pyridazin-3-yl)-N-methylpiperazine-2-carboxamide]
– | 1.85 | 46 | Cc1nnn(-c2ccc(C(F)F)cc2)c1COc1ccc(N2CCN(C3CCOC3)C(=O)C2)nn1 (centres unmarked) [Example 58, 4-(6-((1-(4-(Difluoromethyl)phenyl)-4-methyl-1H-1,2,3-triazol-5-yl)methoxy)pyridazin-3-yl)-1-(tetrahydrofuran-3-yl)piperazin-2-one]
– | 2.79 | 47.6 | Cc1nnn(-c2ccc(C(F)F)cc2)c1COc1ccc(N2CCN3CC(c4cnn(C)c4)NC(=O)[C@@H]3C2)nn1 (single isomer, unassigned) [Example 210]
– | 9.03 | 52.8 | Cc1nnn(-c2ccc(C(F)F)cc2)c1COc1ccc(N2CCO[C@H](C(=O)O)C2)nn1 [Example 35, (S)-4-(6-((1-(4-(Difluoromethyl)phenyl)-4-methyl-1H-1,2,3-triazol-5-yl)methoxy)pyridazin-3-yl)morpholine-2-carboxylic acid]
– | 2.2 | 43.3 | Cc1nnn(-c2ccc(C(F)F)cc2)c1COc1ccc(N2CCN3CCOC[C@@H]3C2)nn1 [Example 13, (S)-8-(6-((1-(4-(Difluoromethyl)phenyl)-4-methyl-1H-1,2,3-triazol-5-yl)methoxy)pyridazin-3-yl)octahydropyrazino[2,1-c][1,4]oxazine]
– | 1.5 | 45.7 | COc1cc(N2CCNC(=O)C2)nnc1OCc1c(C)nnn1-c1ccc(C(F)F)cc1 [Example 134, 4-(6-((1-(4-(Difluoromethyl)phenyl)-4-methyl-1H-1,2,3-triazol-5-yl)methoxy)-5-methoxypyridazin-3-yl)piperazin-2-one]
– | 6.43 | 41.5 | Cc1nnn(-c2ccc(C(F)F)cc2)c1COc1ccc(N2CC(C(=O)NC3CCOCC3)C2)nn1 [Example 50, 1-(6-((1-(4-(Difluoromethyl)phenyl)-4-methyl-1H-1,2,3-triazol-5-yl)methoxy)pyridazin-3-yl)-N-(tetrahydro-2H-pyran-4-yl)azetidine-3-carboxamide]
– | 1.74 | 53.9 | Cc1nnn(-c2ccc(C(F)F)cc2)c1COc1ccc(N2CCN3CC(C(C)(C)C)NC(=O)[C@@H]3C2)nn1 (single isomer, unassigned) [Example 201]
– | 6.21 | 42.7 | Cc1nnn(-c2ccc(C(F)F)cc2)c1COc1ccc(N2CC(C(=O)N3CCOCC3)C2)cn1 [Example 160, (1-(6-((1-(4-(Difluoromethyl)phenyl)-4-methyl-1H-1,2,3-triazol-5-yl)methoxy)pyridin-3-yl)azetidin-3-yl)(morpholino)methanone]
– | 22.5 | 53.9 | Cn1nnc(-c2ccc(F)cc2)c1COc1ccc(N2CCNC(=O)C2)nn1 [Example 128, 4-(6-((4-(4-Fluorophenyl)-1-methyl-1H-1,2,3-triazol-5-yl)methoxy)pyridazin-3-yl)piperazin-2-one]
– | 3.97 | 44.9 | Cc1nnn(-c2ccc(C(F)F)cc2)c1COc1ccc(N2CCN(CCO)C(=O)C2)nn1 [Example 59, 4-(6-((1-(4-(Difluoromethyl)phenyl)-4-methyl-1H-1,2,3-triazol-5-yl)methoxy)pyridazin-3-yl)-1-(2-hydroxyethyl)piperazin-2-one]
– | 7.08 | 42.2 | Cc1nnc([C@@H]2CN(c3ccc(OCc4c(C)nnn4-c4ccc(C(F)F)cc4)nn3)CCN2)o1 [Example 34, (S)-2-(4-(6-((1-(4-(Difluoromethyl)phenyl)-4-methyl-1H-1,2,3-triazol-5-yl)methoxy)pyridazin-3-yl)piperazin-2-yl)-5-methyl-1,3,4-oxadiazole]
– | 20 | 49.9 | CCNC(=O)C1CN(c2ccc(OCc3c(C)nnn3-c3ccc(C(F)F)cc3)nc2)C1 [Example 159, 1-(6-((1-(4-(Difluoromethyl)phenyl)-4-methyl-1H-1,2,3-triazol-5-yl)methoxy)pyridin-3-yl)-N-ethylazetidine-3-carboxamide]
– | 1.96 | 55.9 | Cc1nnn(-c2ccc(C(F)F)cc2)c1COc1ccc(N2CCN3CC(CC(C)C)NC(=O)[C@@H]3C2)nn1 (single isomer, unassigned) [Example 208]

From patent US20250136581A1, “SUBSTITUTED TRIAZOLE DERIVATIVE, PREPARATION METHOD THEREFOR, PHARMACEUTICAL COMPOSITION THEREOF, AND USE THEREOF” (SHANGHAI SIMR BIOTECHNOLOGY CO., LTD., priority 2021, published 2025)
